Experimental data reported in article PMC4383003, “Transfer hydrogenation catalysis in cells as a new approach to anticancer drug design” (Nature Communications, 2015).

What was measured:
[1] = tested on: A2780 ovarian cancer cells; assay: Cell viability on co-administration of Ru complexes (1/3 x IC50) with formate or acetate; type: cell-based, human; conditions: for Cell viability: A2780, complex 1/3 x IC50, 24 h
Method: Cell viability assays were carried out with complexes 1–8 in A2780 ovarian cancer cells. These experiments were carried out as described above with the following modifications: a fixed concentration of each Ru complex equal to 1/3 × IC50 was used in co-administration with three different concentrations of sodium formate or sodium acetate (0.5, 1.0 and 2.0 mM). To prepare the stock solution of the drug, the complex was dissolved in 5% dimethylsulfoxide and diluted in a 1:1 mixture of 0.9% saline:cell culture medium. This stock was further diluted using RPMI-1640 until working concentrations were achieved. Separately, stock solutions of sodium formate or sodium acetate were prepared in saline. The complex and formate were added to each well independently, but within 5 min of each other.
Supplementary Table 7: Percent cell viability of A2780 ovarian cancer cells exposed to equipotent concentrations of ruthenium complexes 1-3 and 5-8 (1/3 x […]
The experiments included 48 h of pre-incubation and 72 h of drug recovery, both in drug-free medium at 310 K in a 5% CO2 humidified atmosphere. All the experiments were performed as duplicates of triplicates in independent experiments and the error bars were calculated as the standard deviation from the mean.
Supplementary Table 11: Cell viability (%) of A2780 ovarian cancer cells exposed […]
administered with different concentrations of sodium acetate (0, 0.5, 1 and 2 mM).
The experiments involved 48 h of pre-incubation and 72 h of drug recovery, both in […]
Cell viability percentages (%)
Complex Acetate concentration (mM)

[2] = tested on: A2780 ovarian cancer cells; assay: Ruthenium accumulation in cancer cells (ICP-MS); type: cell-based, human; conditions: for Cell Ru: A2780, 1/3 x IC50, 24 h drug exposure, no recovery time; for Cell accum.: A2780, 24 h, 1/3 x IC50
Method: Briefly, 1.5 × 10^6 cells per well were seeded on a six-well plate. […] After this time, cells were washed, treated with trypsin-EDTA, counted and cell pellets were collected. Each pellet was digested overnight in concentrated nitric acid (73%) at 353 K; the resulting solutions were diluted using double-distilled water to give a final concentration of 5% HNO3 and the amount of Ru taken up by the cells was determined by ICP–MS. […]
Supplementary Table 3: Antiproliferative activity of complexes 1-8 in A2780 ovarian cancer cells and their cellular accumulation (expressed as ng Ru per million cells).
The latter experiments were carried out using equipotent concentrations of the […]
experiments were performed as duplicates of triplicates in independent experiments and the error bars were calculated as the standard deviation from the mean. […]

[3] = tested on: A2780 human ovarian cancer cells; assay: In vitro growth inhibition assay (SRB), A2780; type: cell-based
Method: A2780 human ovarian carcinoma and MRC5 human fetal lung fibroblasts were obtained from the European Collection of Cell Cultures. Both cell lines were grown in Roswell Park Memorial Institute medium (RPMI-1640) supplemented with 10% of fetal calf serum, 1% of 2 mM glutamine and 1% penicillin/streptomycin. All cells were grown as adherent monolayers at 310 K in a 5% CO2-humidified atmosphere and passaged at ca. 70–80% confluency.
The antiproliferative activity of complexes 1–8 was determined in A2780 ovarian cancer cells and MRC5 fibroblasts. Briefly, 96-well plates were used to seed 5,000 cells per well. The plates were left to pre-incubate with drug-free medium at 310 K for 48 h before adding different concentrations of the compounds to be tested. A drug exposure period of 24 h was allowed. After this, supernatants were removed by suction and each well was washed with PBS. A further 72 h were allowed for the cells to recover in drug-free medium at 310 K. The sulforhodamine B (SRB) assay was used to determine cell viability. IC50 values, as the concentration that causes 50% cell death, were determined as duplicates of triplicates in two independent sets of experiments and their s.d. were calculated.

CS(=O)(=O)[N-]CCN.[Cl-].[Ru+2].c1ccc(-c2ccccc2-c2ccccc2)cc1 [Complex 5, [(o-terp)Ru(MsEn)Cl]]
Cell viability ([1]; formate 0 mM): 73.59 ± 0.04% | Cell viability ([1]; formate 0.5 mM): 71.9 ± 0.4% | Cell viability ([1]; formate 1 mM): 44.2 ± 0.2% | Cell viability ([1]; formate 2 mM): 5.8 ± 0.6% | Cell Ru [2]: 2.8 ± 0.3 ng x 106 cells | Cell accum. [2]: 2.8 ng Ru/10^6 cells | IC50 ([3]; A2780, Supplementary Table 3): 12.4 ± 0.9 µM

Cc1ccc(S(=O)(=O)[N-]CCN)cc1.[Cl-].[Ru+2].c1ccc(-c2ccccc2-c2ccccc2)cc1 [Complex 6, [(o-terp)Ru(TsEn)Cl]]
Cell viability ([1]; formate 0 mM): 72.8 ± 0.9% | Cell viability ([1]; formate 0.5 mM): 59 ± 3% | Cell viability ([1]; formate 1 mM): 43.6 ± 1.4% | Cell viability ([1]; formate 2 mM): 22.2 ± 0.8% | Cell Ru [2]: 2.1 ± 0.4 ng x 106 cells | IC50 ([3]; A2780, Supplementary Table 3): 15.8 ± 0.8 µM

NCC[N-]S(=O)(=O)c1ccc(C(F)(F)F)cc1.[Cl-].[Ru+2].c1ccc(-c2ccccc2-c2ccccc2)cc1 [Complex 7, [(o-terp)Ru(TfEn)Cl]]
Cell viability ([1]; formate 0 mM): 40 ± 2% | Cell viability ([1]; formate 0.5 mM): 20.8 ± 0.6% | Cell viability ([1]; formate 1 mM): 11.9 ± 0.6% | Cell viability ([1]; formate 2 mM): 2.5 ± 0.7% | decrease in cell survival ([1]; A2780, formate increased from 0 to 2 mM): ca. 16 fold | Cell Ru [2]: 2.4 ± 0.3 ng x 106 cells | Cell accum. [2]: 2.4 ng Ru/10^6 cells | IC50 ([3]; A2780, Supplementary Table 3): 21.2 ± 0.1 µM

N.N.[Cl][Pt][Cl] [cisplatin, reference compound]
IC50 ([3]; A2780, 24 h drug exposure, no formate): 1.2 µM

O=C[O-].[Na+] [formate, sodium formate]
toxicity of formate itself to the cells ([1]; A2780, 0 to 2 mM): non-toxic
